ΔTm and GI50 data for 18 molecules are collected here from EP4806898A1, “HETEROARYL DERIVATIVE COMPOUND AND USE THEREOF” (Voronoi Inc., priority 2023, dated 2025).

The term ΔTm denotes the shift of the melting midpoint relative to a reference. By GI50 is commonly meant the concentration that inhibits growth by half.

Each structure is given as a SMILES string.

Assay [1] has as its target T1, recombinant USP1 protein (Homo sapiens, UniProt O94782, DEL125-138/DEL229-408/DEL608-737).
T1 sequence (O94782 with tags, fused parts or gaps DEL125-138/DEL229-408/DEL608-737): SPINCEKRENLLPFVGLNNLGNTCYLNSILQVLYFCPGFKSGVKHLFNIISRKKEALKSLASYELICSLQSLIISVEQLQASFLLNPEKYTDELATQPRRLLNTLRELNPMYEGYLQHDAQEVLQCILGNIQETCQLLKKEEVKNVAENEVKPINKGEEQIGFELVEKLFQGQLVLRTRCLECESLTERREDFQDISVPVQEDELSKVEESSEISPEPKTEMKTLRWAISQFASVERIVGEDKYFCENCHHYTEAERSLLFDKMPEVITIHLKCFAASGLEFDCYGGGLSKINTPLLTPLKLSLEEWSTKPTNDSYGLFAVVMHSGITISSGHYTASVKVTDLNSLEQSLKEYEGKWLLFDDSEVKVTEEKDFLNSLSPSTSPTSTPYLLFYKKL
The experiment in a line: Binding affinity to recombinant USP1 protein by differential scanning fluorimetry. Conditions: compound 100 µM; 0.03 mg/mL USP1 (Δ1-66, Δ125-138, Δ229-408, Δ608-737); Tm with compound minus Tm with DMSO; read-out: ΔTm (°C). In a few lines: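 Thermal shift readout: ΔTm is the compound-well melting temperature less the DMSO-well value, measured by real-time PCR. Compounds tested at 100 µM final against 0.03 mg/mL truncated USP1 (Δ1-66, Δ125-138, Δ229-408, Δ608-737) in pH 8.0 Tris buffer containing 150 mM NaCl, 2% glycerol, 1 mM DTT.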
(In general: Differential scanning fluorimetry follows unfolding on heating by fluorescence.)

Assay [2] deals with UWB1.289 cells. The experiment in a line: Cell proliferation inhibitory activity in BRCA1/2-mutant or HRD-positive cells (Cell Titer-Glo). In kind it is cell-based. Conditions: UWB1289; UWB1.289 cells, 144 hours after compound treatment, Cell Titer-Glo, 1.5 nM to 10 µM; read-out: GI50 UWB1.289 BRCA1 mut. Summed up: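 GI50 from CellTiter-Glo luminescence after 144 h compound exposure at 37 °C. Cells seeded at 1,000 per well in MEBM/RPMI1640 mix 16–24 h beforehand; […] from 10 µM down to 1.5 nM final (3-fold steps).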
(ATP-based viability assays read luminescence as a measure of living cells.)

Regarding `COc1ncnc(C2CC2)c1-c1ncc2cc(C(N)=O)n(Cc3ccc(-n4nc(C(F)(F)F)cc4C)cc3)c2n1` [Example 177, 2-(4-cyclopropyl-6-methoxypyrimidin-5-yl)-7-(4-(5-methyl-3-(trifluoromethyl)-1H-pyrazol-1-yl)benzyl)-7H-pyrrolo[2,3-d]pyrimidine-6-carboxamide], the ΔTm at 100 µM in assay [1] was > 5 °C. The GI50 in assay [2] was < 100 nM.

With `CNC(=O)c1cc2cnc(-c3cccnc3OC(F)F)nc2n1Cc1ccc(-c2nc(C(F)(F)F)cn2C(C)C)cc1` [Example 178, 2-(2-(difluoromethoxy)pyridin-3-yl)-7-(4-(1-isopropyl-4-(trifluoromethyl)-1H-imidazol-2-yl)benzyl)-N-methyl-7H-pyrrolo[2,3-d]pyrimidine-6-carboxamide], the ΔTm at 100 µM in assay [1] is > 5 °C. The GI50 in assay [2] is < 100 nM.

For `COc1ncnc(C2CC2)c1-c1ncc2cc(C(=O)N3CC(N(C)C)C3)n(Cc3ccc(-c4nc(C(F)(F)F)cn4C)cc3)c2n1` [Example 179, (2-(4-cyclopropyl-6-methoxypyrimid in-5-yl)-7-(4-(1-methyl-4-(trifluoromethyl)-1H-imidazol-2-yl)benzyl)-7H-pyrrolo[2,3-d]pyrimidin-6-yl) (3-(dimethylamino)azetidin-1-yl)methanone], in assay [1], the ΔTm at 100 µM was > 5 °C. Moreover, the GI50 in assay [2] is < 100 nM.

As to `CNC(=O)c1cc2cnc(-c3ccccc3C(C)C)nc2n1Cc1ccc(-c2nc(C(F)(F)F)cn2C)cc1` [Example 180, 2-(2-isopropylphenyl)-N-methyl-7-(4-(1-methyl-4-(trifluoromethyl)-1H-imidazol-2-yl)benzyl)-7H-pyrrolo[2,3-d]pyrimidine-6-carboxamide], the ΔTm at 100 µM in assay [1] was > 5 °C. In addition, in assay [2], the GI50 was < 100 nM.

For `COc1ncnc(C2CC2)c1-c1ncc2cc(C(=O)N[C@H]3CN(C)C[C@@H]3F)n(Cc3ccc(-c4nc(C(F)(F)F)cn4C)cc3)c2n1` [Example 181, 2-(4-cyclopropyl-6-methoxypyrimidin-5-yl)-N-((3S,4S)-4-fluoro-1-methylpyrrolidin-3-yl)-7-(4-(1-methyl-4-(trifluoromethyl)-1H-imidazol-2-yl)benzyl)-7H-pyrrolo[2,3-d]pyrimidine-6-carboxamide], in assay [1], the ΔTm at 100 µM is > 5 °C. Moreover, the GI50 in assay [2] is < 100 nM.

As to `COc1ncnc(C2CC2)c1-c1ncc2cc(C(=O)N[C@H]3CN(C)C[C@H]3F)n(Cc3ccc(-c4nc(C(F)(F)F)cn4C)cc3)c2n1` [Example 182, 2-(4-cyclopropyl-6-methoxypyrimidin-5-yl)-N-((3S,4R)-4-fluoro-1-methylpyrrolidin-3-yl)-7-(4-(1-methyl-4-(trifluoromethyl)-1H-imidazol-2-yl)benzyl)-7H-pyrrolo[2,3-d]pyrimidine-6-carboxamide], the ΔTm at 100 µM in assay [1] is > 5 °C. Besides, the GI50 in assay [2] is < 100 nM.

On to `[2H]C([2H])([2H])n1cc(C(F)(F)F)nc1-c1ccc(Cn2c(C(=O)NC)cc3cnc(-c4c(OC)ncnc4C4CC4)nc32)cc1` [Example 183, 2-(4-cyclopropyl-6-methoxypyrimidin-5-yl)-N-methyl-7-(4-(1-(methyl-d3)-4-(trifluoromethyl)-1H-imidazol-2-yl)benzyl)-7H-pyrrolo[2,3-d]pyrimidine-6-carboxamide], for which the ΔTm at 100 µM in assay [1] was > 5 °C. For the same molecule, the GI50 in assay [2] was < 100 nM.

Consider `CNC(=O)c1cc2cnc(-c3c(OC4CC4)ncnc3C3CC3)nc2n1Cc1ccc(-c2nc(C(F)(F)F)cn2C)cc1` [Example 184, 2-(4-cyclopropyl-6-cyclopropoxypyrimidin-5-yl)-N-methyl-7-(4-(1-methyl-4-(trifluoromethyl)-1H-imidazol-2-yl)benzyl)-7H-pyrrolo[2,3-d]pyrimidine-6-carboxamide], for which, in assay [1], the ΔTm at 100 µM was > 5 °C. In assay [2], the GI50 is < 100 nM.

Take `COc1ncnc(C2CC2)c1-c1ncc2cc(C(=O)NC3CCN(C)CC3(F)F)n(Cc3ccc(-c4nc(C(F)(F)F)cn4C)cc3)c2n1` (stereo not drawn) [Example 185, 2-(4-cyclopropyl-6-methoxypyrimidin-5-yl)-N-(3,3-difluoro-1-methylpiperidin-4-yl)-7-(4-(1-methyl-4-(trifluoromethyl)-1H-imidazol-2-yl)benzyl)-7H-pyrrolo[2,3-d]pyrimidine-6-carboxamide]: the ΔTm at 100 µM in assay [1] was > 5 °C. The GI50 in assay [2] is < 100 nM.

With `CNC(=O)c1cc2cnc(-c3c(Cl)cnn3C)nc2n1Cc1ccc(-c2nc(C(F)(F)F)cn2C)cc1` [Example 186, 2-(4-chloro-1-methyl-1H-pyrazol-5-yl)-N-methyl-7-(4-(1-methyl-4-(trifluoromethyl)-1H-imidazol-2-yl)benzyl)-7H-pyrrolo[2,3-d]pyrimidine-6-carboxamide], in assay [1], the ΔTm at 100 µM was > 5 °C. Further, the GI50 in assay [2] is < 100 nM.

Consider `CNC(=O)c1cc2cnc(-c3c(OC)ncnc3C3CC3)nc2n1Cc1ccc(-c2nc(C(F)(F)F)cn2[C@@H]2CCN(C)C[C@H]2F)cc1` [Example 187, 2-(4-cyclopropyl-6-methoxypyrimidin-5-yl)-7-(4-(1-((3R,4R)-3-fluoro-1-methylpiperidin-4-yl)-4-(trifluoromethyl)-1H-imidazol-2-yl)benzyl)-N-methyl-7H-pyrrolo[2,3-d]pyrimidine-6-carboxamide], for which, in assay [1], the ΔTm at 100 µM was > 5 °C. The GI50 in assay [2] was < 100 nM.

`CNC(=O)c1cc2cnc(-c3c(OC)ncnc3C3CC3)nc2n1Cc1ccc(-n2nc(C(C)(C)O)cc2C)cc1` [Example 188, 2-(4-cyclopropyl-6-methoxypyrimidin-5-yl)-7-(4-(3-(2-hydroxypropan-2-yl)-5-methyl-1H-pyrazol-1-yl)benzyl)-N-methyl-7H-pyrrolo[2,3-d]pyrimidine-6-carboxamide]: the ΔTm at 100 µM in assay [1] is > 5 °C. Besides, the GI50 in assay [2] was in the range of 100 to 500 nM.

With `CNC(=O)c1cc2cnc(-c3c(OC)ncnc3C3CC3)nc2n1Cc1ccc(-c2nc(C(F)(F)F)cn2[C@H]2CCN(C)C[C@@H]2F)cc1` [Example 189, 2-(4-cyclopropyl-6-methoxypyrimidin-5-yl)-7-(4-(1-((3S,4S)-3-fluoro-1-methylpiperidin-4-yl)-4-(trifluoromethyl)-1H-imidazol-2-yl)benzyl) -N-methyl-7H-pyrrolo [2,3-d]pyrimidine-6-carboxamide], the ΔTm at 100 µM in assay [1] is > 5 °C. Also, in assay [2], the GI50 was < 100 nM.

Regarding `COc1ncnc(C2CC2)c1-c1ncc2cc(C(=O)NC[C@@H](O)C(C)C)n(Cc3ccc(-c4nc(C(F)(F)F)cn4C)cc3)c2n1` [Example 190, (S)-2-(4-cyclopropyl-6-methoxypyrimidin-5-yl)-N-(2-hydroxy-3-methylbutyl)-7-(4-(1-methyl-4-(trifluoromethyl)-1H-imidazol-2-yl)benzyl)-7H-pyrrolo[2,3-d]pyrimidine-6-carboxamide], the ΔTm at 100 µM in assay [1] was > 5 °C. Also, in assay [2], the GI50 was < 100 nM.

For the molecule `COc1ncnc(C2CC2)c1-c1ncc2cc(C(=O)N[C@@H](C)CCO)n(Cc3ccc(-c4nc(C(F)(F)F)cn4C)cc3)c2n1` [Example 191, (S)-2-(4-cyclopropyl-6-methoxypyrimidin-5-yl)-N-(4-hydroxybutan-2-yl)-7-(4-(1-methyl-4-(trifluoromethyl)-1H-imidazol-2-yl)benzyl)-7H-pyrrolo[2,3-d]pyrimidine-6-carboxamide], the ΔTm at 100 µM in assay [1] is > 5 °C. Besides, the GI50 in assay [2] was < 100 nM.

On to `CNC(=O)c1cc2cnc(-c3cccc4c3N(C)CC4)nc2n1Cc1ccc(-c2nc(C(F)(F)F)cn2C)cc1` [Example 193, N-methyl-7-(4-(1-methyl-4-(trifluoromethyl)-1H-imidazol-2-yl)benzyl)-2-(1-methylindolin-7-yl)-7H-pyrrolo[2,3-d]pyrimidine-6-carboxamide], for which the ΔTm at 100 µM in assay [1] was < 5 °C. The GI50 in assay [2] is < 100 nM.

`CNC(=O)c1cc2cnc(-c3c(OC)ncnc3C3CC3)nc2n1Cc1ccc(-c2nc(C(F)(F)F)cn2C)c(OC)c1` [Example 194, 2-(4-cyclopropyl-6-methoxypyrimidin-5-yl)-7-(3-methoxy-4-(1-methyl-4-(trifluoromethyl)-1H-imidazol-2-yl)benzyl)-N-methyl-7H-pyrrolo[2,3-d]pyrimidine-6-carboxamide]: the thermal shift (ΔTm) at 100 µM in assay [1] is > 5 °C. In addition, the GI50 in assay [2] was in the range of 100 to 500 nM.

Take `[2H]C([2H])([2H])N(C(=O)c1cc2cnc(-c3c(OC)ncnc3C3CC3)nc2n1Cc1ccc(-c2nc(C(F)(F)F)cn2C)cc1)C([2H])([2H])[2H]` [Example 195, 2-(4-cyclopropyl-6-methoxypyrimidin-5-yl)-N,N-bis(methyl-d3)-7-(4-(1-methyl-4-(trifluoromethyl)-1H-imidazol-2-yl)benzyl)-7H-pyrrolo[2,3-d]pyrimidine-6-carboxamide]: the ΔTm at 100 µM in assay [1] was > 5 °C. In addition, the GI50 in assay [2] lay in the range of 100 to 500 nM.
